{"source": "patent US8299237B2", "about": "“Nucleic acid sequences comprising NF-κB binding site within O(6)-methylguanine-DNA-methyltransferase (MGMT) promoter region and uses thereof for the treatment of cancer and immune-related disorders” (Hadasit Medical Research Services & Development Ltd., priority 2007, dated 2012)", "key": {"[1]": {"test_system": "MGMT-kB1-Luc reporter construct induced by NF-κB/p65", "test": "Luciferase reporter assay, MGMT-kB1-Luc co-transfected with NF-κB/p65", "type": "cell-based, human", "procedure": "Transient transfections were performed in 6-well plates, using the FuGene6 transfection reagent (Roche Diagnostics GmbH, Mannheim, Germany), according to the manufacturer's instructions. U87MG, T98G, and A172 cells were transfected with pNF-κB-Luc reporter Vector (Clontech, Palo Alto, Calif.), while RG2 and U87MG were transfected with MGMT-Luc [construct p-954/+24 mL [Biswas T. et al. Oncogene 18:525-32 (1999)] kindly provided by Sankar Mitra] (1 μg/well). CMVβ-galactosidase expression vector (CMVβgal-Clonthech) was included (0.1 μg/well) in each transfection to normalize transfection efficiency. HEK293 cells were transfected with CMVβgal alone or along with one or more of the following plasmids: CMVp65, CMVΔNIκB, CMVp50, CMVcJun. CMVp65 and CMVΔNIκB plasmids were kindly provided by Prof. Yinon. Ben-Neriah (The Hebrew University, Jerusalem, Israel), CMVp50 and CMVcJun were kindly provided by Dr. Danielle Melloul (Hadassah Hebrew University Medical Center, Jerusalem, Israel).\nAt 24 hrs following transfection, the cells were lysed for 15 min on ice with 200 μl of luciferase lysis buffer (Promega, Madison, Wis.). Luciferase assays were carried out using a Promega assay kit and a luminometer (EG&G Berthold, Bad Wildbad, Germany). The activity was normalized to β-galactosidase activity (Promega) and plotted as the mean±s.d. of triplicates from a representative experiment.\nFor the cloning of the MGMT-luc constructs the reporter vector p-TA-Luc (Clontech, Palo Alto, USA) was used. The plasmid contains TATA box motif upstream to a luciferase reporter gene. A double stranded DNA corresponding to four repeats of each sequence as indicated by FIG. 8A (also denoted by SEQ ID NO. 44, 45, 46 and 47), was synthesis by syntezza LTD and ligated upstream to the TATA box.\nTo test the activity of these sites, several luciferase reporter genes bearing four copies of either intact or mutant sequence, of each of the two NF-κB sites (NF-κB1 and NF-κB2), were constructed as indicated in Experimental procedures. […] An inhibition of approximately 50% was observed using 100 nM ODN. Negative control using the CMVΔNIκB (ΔN)-Luc construct as well as positive control using the canonical HIV-κB-Luc reporter construct, confirmed validity of the data.\nInduction of over expression of NF-κB in HEK 293T cells by transfection of a CMV-NF-κB/p65 generated a 50-fold elevation in luciferase expression driven by the Co-transfected reporter construct MGMT-kB1-Luc. […] Inhibition of approximately 90% was induced by 150 nM LMODN. […] No inhibition was detected when a mutant LMODN was introduced into the cells, indicating the specificity of MGMT-kB1-LMODN (of SEQ ID NO. 40 and 41). […] 3 (HIV-κB-Luc construct)."}, "T98MG gliomas cell line": {"test_system": "T98MG gliomas cell line", "type": "cell-based, human", "conditions": "2.5 mM TMZ without LMODN", "procedure": "T98MG glioma cell line cells were treated with increasing doses of the decoy ODN's of the invention. Double stranded ODNs (30mers), corresponding to MGMT-κB1 binding site (as also denoted by SEQ. ID. NO. 1), and control ODNs were purchased from IDT. Each strand of ODN was thirty-mers and contained six LNA nucleotides. The following ODNs were used: MGMT-kB1forward: 5′---+T+AATGGGG+ACTTTAC GGG+[…]+A+T---3′ (as also denoted by SEQ. ID. NO. 40) with or without the 5′ end labeled with carboxyfluorescein-5-succimidyl ester (FAM). The MGMT-kB1 reverse ODN: 5′---+A+TTCTGTA+[…]+[…]+T+A---3′ as also denoted by SEQ ID NO. 41). Control forward: 5′---+T+AG TGT CG+A CTT CAC TCT+ACT TGA CAG A+A+T---3′ (as also denoted by SEQ ID NO. 42), control reverse: 5′---+A+TT CTG TC+A AGT AGA GTG+AAG TCG ACA C+T+A---3′ as also denoted by SEQ ID NO. 43). It should be noted that (+designated as nucleotide containing an LNA modification).\nThe viability of the cells was tested 24-48 hrs later by CellTiter-Blue assay (Promega®). The assay was carried out according to the supplier's instructions. Briefly, the assay is based on the ability of living cells to convert a redox dye (resazurin) into a fluorescent end product (resorufin). Cell viability estimation is done by measuring the fluorescent intensity of resorufin (ex. 560 nm, em. 590 nm) using a fluorescent microplate reader.\nThe inventors next tested the potential of the decoy LMODN molecules of the invention to sensitize tumor cells to alkylating agents and thereby improve their efficacy as anti-cancerous treatment. Therefore, several human cancer cell lines were treated with alkylating agents with increasing doses of MGMT-kB1-ODN followed by cell viability tests. First, the sensitivity of each cell line to several alkylating agents, mainly temozolomide (TMZ) and BCNU was calibrated. At 24 hrs following sowing, cells were exposed for two hours to increasing concentrations of the alkylating agent and viability of the cells was tested 24-48 hrs later by CellTiter-Blue assay (Promega®). To test the potential of MGMT-kB1-LMODN to sensitize tumor cells to alkylating agents in-vitro, increasing doses of LMODNs MGMT-kB1 forward and reverse as denoted by SEQ ID NO. 40 and 41, respectively), with or without the 5′ end labeled with carboxyfluorescein-5-succimidyl ester (FAM), as well as the control LMODNs (as denoted by SEQ ID NO. 42 and 43), were liposomally introduced (Lipofectamine 2000, Invitrogen) to various tumor cancer cells. Twenty four hours later, cells were treated with the different doses of alkylating agents as calibrated before.\nFIG. 9 represents an example of T98MG gliomas cell line sensitized to alkylating agents in response to treatment with the LMODN's of the invention. […]"}, "NF-κB/p65": {"target": "T1, NF-κB/p65 (Homo sapiens, UniProt Q04206)", "T1 construct": "10 μg of nuclear extracts with 0.3 ng of ^32P-labeled synthetic double-stranded oligodeoxynucleotides; endogenous in cells; host or cells: HeLa cells treated with TNFα (nuclear extract)", "T1 sequence (Q04206 whole entry)": "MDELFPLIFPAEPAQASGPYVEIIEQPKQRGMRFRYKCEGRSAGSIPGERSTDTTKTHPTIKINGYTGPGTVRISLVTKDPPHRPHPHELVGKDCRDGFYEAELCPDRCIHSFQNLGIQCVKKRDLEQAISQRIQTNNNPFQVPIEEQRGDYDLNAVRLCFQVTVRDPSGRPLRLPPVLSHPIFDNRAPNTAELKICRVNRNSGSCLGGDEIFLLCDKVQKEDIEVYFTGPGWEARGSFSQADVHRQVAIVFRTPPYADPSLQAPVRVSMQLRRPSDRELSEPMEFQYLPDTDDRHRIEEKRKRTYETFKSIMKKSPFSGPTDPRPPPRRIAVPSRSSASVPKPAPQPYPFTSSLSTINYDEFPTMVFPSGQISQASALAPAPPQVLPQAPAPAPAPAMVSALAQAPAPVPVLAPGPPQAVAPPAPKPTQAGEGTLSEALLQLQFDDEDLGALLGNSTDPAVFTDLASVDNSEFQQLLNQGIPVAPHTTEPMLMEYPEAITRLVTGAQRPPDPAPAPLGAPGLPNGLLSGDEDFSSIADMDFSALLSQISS", "test": "Gel electrophoretic mobility shift assay (EMSA) with HeLa nuclear extracts", "type": "binding", "conditions": "nuclear extracts from Hela cells exposed to TNFα (200 u/ml)", "procedure": "Nuclear extracts were prepared from HeLa cells treated with 200 units/ml of TNFα for 15 min. Oligodeoxynucleotides spanning the NF-κB binding site within the MGMT promoter (also denoted by SEQ ID NO. 4 and 5), with or without a C-G mutation (also denoted by SEQ ID NO. 6 and 7) or the consensus NF-κB site from HIV LTR (SEQ ID NO. 3, also shown in FIG. 1B), were end-labeled by a fill-in reaction using the Klenow fragment of DNA polymerase (New England Biolabs, Beverly, Mass.). DNA binding reactions were performed by incubation on ice for 15 min of 10 μg of nuclear extracts with 0.3 ng of ^32P-labeled synthetic double-stranded oligodeoxynucleotides in the presence of 10 mM Hepes, pH 7.9, 10% glycerol, 50 mM KCl, 5 mM MgCl2, 5 mM dithiothreitol, 2 μg of poly (dI·dC), and 0.1% Nonidet P-40. Competitor oligonucleotides were incubated in 100-fold molar excess and preincubated in the reaction mixtures for 10 min before addition of the radiolabeled probe. For supershift experiments, 1 μl of p65 antibody (MAB16200, Chemicon International Inc., Temecula, Calif.) was added during the preincubation period.\nTo explore whether the NF-κB sites found within the MGMT promoter actually bind NF-κB, the inventors next performed an EMSA analysis of nuclear extracts from HeLa cells treated with TNFα and with labeled DNA fragments spanning the region containing the NF-κB motif. As shown by FIG. 1C, this process generated a nuclear binding factor specific for these regions (FIG. 1C, lanes 5 and 9), of the same size as the complex attached to the consensus HIV-κB site as also denoted by SEQ ID NO. 3 (FIG. 1C, lane 2) as indicated by the black arrows. […] Binding specificity was confirmed by competition with cold HIV-κB oligonucleotide. […] This confirmed that p65 binds to both NF-κB putative sites. The upper band in lane 9 (FIG. 1C) is not the same size as the NF-κB complex attached to the canonical HIV-κB oligonucleotide (FIG. 1C, lane 2). It was neither shifted when incubated with NF-κB/p65 antibodies (lane 10), nor abolished in the presence of unlabeled HIV-κB probe (FIG. 1C, lane 11). Based on the finding that the MGMT-κB2 binding site overlaps the Sp1 site, the inventors speculate that this complex may further contain Sp1. This speculation is also supported by its size, which is the same as that of the complex attached to the Sp1 oligonucleotide (FIG. 1C, lane 1)."}}, "data": [{"compound": "SEQ ID NO. 36 and 37: double stranded LNA modified ODN decoy of MGMT-kB1 site; forward SEQ ID NO. 36, reverse SEQ ID NO. 37 (sense TAAGAGGGACTTTACGGGACTTTACTACAT; antisense ATGTAGTAAGTCCCGTAAAGTCCCTCTTA; LNA modifications, chemistry not fully specified; listed as Homo sapiens) [double stranded LNA modified ODN decoy of MGMT-kB1 site; 37]", "values": [{"measurement": "inhibition of luciferase activity", "setting": "[1]; 100 nM ODN, HEK293T, MGMT-κB1 reporter construct + NF-κB/p65 (FIG. 7)", "value": "approximately 50%"}, {"measurement": "effect on luciferase activity driven by MGMT-kB1 reporter (in words)", "setting": "[1]; HEK293T co-transfected with MGMT-kB1 reporter and NF-κB/p65", "value": "decreased the luciferase activity in a dose-dependent manner"}]}, {"compound": "Cn1nnc2c(C(N)=O)ncn2c1=O", "note": "[TMZ, temozolomide]", "values": [{"measurement": "live cells", "setting": "T98MG gliomas cell line", "value": 60, "unit": "%"}]}, {"compound": "MGMT-κB1 Mut: MGMT-κB1 oligonucleotide with mutated site (C-to-G substitution) (DNA TGATGGCTTCTGTAAAGTCGGCATCTCCAAATAAGGTCAC; DNA, backbone not given here; further chemistry not fully specified; listed as Homo sapiens)", "values": [{"measurement": "binding of NF-κB in nuclear extract to 32P-labeled probe (in words)", "setting": "NF-κB/p65", "value": "Specific binding was not observed"}]}, {"compound": "MGMT-κB-1: EMSA oligodeoxynucleotide probe spanning the NF-κB binding site MGMT-κB1 within the MGMT promoter (DNA TGATGGCTTCTGTAAAGTCCCCATCTCCAAATAAGGTCAC; DNA, backbone not given here; further chemistry not fully specified; listed as Homo sapiens)", "values": [{"measurement": "binding of NF-κB in nuclear extract to 32P-labeled probe (in words)", "setting": "NF-κB/p65", "value": "formation of complexes of a similar size"}]}, {"compound": "HIV-κB: consensus NF-κB site from HIV LTR, control probe (DNA GGCTTCAGAGGGGACTTTCCGAGA; labeled probe, label not given here, further chemistry not given here; listed as Homo sapiens)", "values": [{"measurement": "binding of NF-κB in nuclear extract to 32P-labeled probe (in words)", "setting": "NF-κB/p65", "value": "formation of complexes of a similar size"}]}, {"compound": "MGMT-κB2 Mut: MGMT-κB2 oligonucleotide with mutated site (C-to-G substitution) (DNA GGCGGGAACACGGCGCCCCGCCCG; DNA, backbone not given here; further chemistry not fully specified; listed as Homo sapiens)", "values": [{"measurement": "binding of NF-κB in nuclear extract to 32P-labeled probe (in words)", "setting": "NF-κB/p65", "value": "Specific binding was not observed"}]}, {"compound": "MGMT-κB2: EMSA oligodeoxynucleotide probe spanning the NF-κB binding site MGMT-κB2 within the MGMT promoter (DNA GGCGGGAACACCCCGCCCCGCCCG; DNA, backbone not given here; further chemistry not fully specified; listed as Homo sapiens)", "values": [{"measurement": "binding of NF-κB in nuclear extract to 32P-labeled probe (in words)", "setting": "NF-κB/p65", "value": "formation of complexes of a similar size"}]}]}
